Test results taken from patent publication US8415469B2, “Compounds and methods for kinase modulation, and indications therefor” (Plexxikon Inc., priority 2005, dated 2013).

How the values were obtained:
Assay type in all cases: biochemical
Abl = molecular target: T1, Abl (Homo sapiens, UniProt P00519); assay: AlphaScreen kinase assay, Abl; settings: read-out: activity toward kinase Abl, IC50
T1 construct: P1121. pET-SPEC BI-PTP Abl G227-V515-X; His6 (N); made in house; host or cells: E. coli (PTP1B co-expressed)
T1 sequence (P00519 with tags, fused parts or gaps): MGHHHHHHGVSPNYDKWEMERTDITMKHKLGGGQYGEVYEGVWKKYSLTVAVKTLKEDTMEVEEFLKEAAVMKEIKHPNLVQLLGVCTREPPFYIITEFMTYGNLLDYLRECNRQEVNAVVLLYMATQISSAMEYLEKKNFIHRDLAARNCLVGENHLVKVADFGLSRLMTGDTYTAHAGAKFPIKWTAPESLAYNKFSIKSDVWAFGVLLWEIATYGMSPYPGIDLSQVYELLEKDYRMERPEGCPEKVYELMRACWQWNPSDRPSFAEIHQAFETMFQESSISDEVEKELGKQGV
Summary of the method: (§1)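 Uses phospho-specific antibody on acceptor beads plus streptavidin donor beads capturing biotinylated peptide substrate; singlet oxygen from donor excites nearby acceptor. Inhibitors tested in 8-point, 1:3 titrations starting from 20 mM DMSO solutions.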

c-Raf-1 = molecular target: T2, c-Raf-1 (Homo sapiens, UniProt P04049); assay: AlphaScreen kinase assay, c-Raf-1; settings: read-out: IC50, activity toward kinase c-Raf-1
T2 construct: purchased Upstate Biotechnology
T2 sequence (P04049 whole entry): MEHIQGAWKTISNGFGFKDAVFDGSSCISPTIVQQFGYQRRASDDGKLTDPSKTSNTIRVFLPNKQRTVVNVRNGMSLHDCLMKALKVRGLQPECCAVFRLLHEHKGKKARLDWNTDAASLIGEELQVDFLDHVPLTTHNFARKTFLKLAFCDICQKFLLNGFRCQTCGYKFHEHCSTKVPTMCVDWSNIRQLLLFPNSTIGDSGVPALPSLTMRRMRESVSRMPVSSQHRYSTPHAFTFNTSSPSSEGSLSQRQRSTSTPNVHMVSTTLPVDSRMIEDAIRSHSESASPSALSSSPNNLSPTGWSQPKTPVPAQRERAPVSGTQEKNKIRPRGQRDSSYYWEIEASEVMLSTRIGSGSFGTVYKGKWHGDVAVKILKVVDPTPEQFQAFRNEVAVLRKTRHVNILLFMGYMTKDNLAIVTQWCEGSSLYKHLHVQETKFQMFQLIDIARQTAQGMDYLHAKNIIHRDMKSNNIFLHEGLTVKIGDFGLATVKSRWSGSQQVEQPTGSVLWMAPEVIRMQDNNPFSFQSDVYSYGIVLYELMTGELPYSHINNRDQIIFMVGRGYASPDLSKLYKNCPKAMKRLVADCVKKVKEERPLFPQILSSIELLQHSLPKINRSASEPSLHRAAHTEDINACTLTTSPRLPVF

Flt1 = molecular target: T3, Flt1 (Homo sapiens, UniProt P17948); assay: AlphaScreen kinase assay, Flt1; settings: read-out: IC50, activity toward kinase Flt1
T3 construct: P1826.pETN6 BI-PTP FLT1 M799-D1165-X WT; His6 (N); made in house; host or cells: E. coli (PTP1B co-expressed)
T3 sequence (P17948 with tags, fused parts or gaps): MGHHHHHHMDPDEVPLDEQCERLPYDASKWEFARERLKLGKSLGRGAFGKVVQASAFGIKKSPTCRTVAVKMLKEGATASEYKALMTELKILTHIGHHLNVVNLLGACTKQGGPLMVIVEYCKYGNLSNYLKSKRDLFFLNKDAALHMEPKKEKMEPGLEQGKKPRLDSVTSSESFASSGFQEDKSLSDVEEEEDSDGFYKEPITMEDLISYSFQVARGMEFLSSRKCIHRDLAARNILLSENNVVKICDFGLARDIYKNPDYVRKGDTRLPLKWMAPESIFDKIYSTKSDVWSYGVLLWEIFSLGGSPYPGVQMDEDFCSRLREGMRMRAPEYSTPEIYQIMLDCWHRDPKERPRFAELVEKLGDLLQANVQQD

Flt4 = molecular target: T4, Flt4 (Homo sapiens, UniProt P35916); assay: AlphaScreen kinase assay, Flt4; settings: read-out: IC50, activity toward kinase Flt4
T4 construct: purchased ProQinase GmbH (Freiburg, Germany)
T4 sequence (P35916 25-1363): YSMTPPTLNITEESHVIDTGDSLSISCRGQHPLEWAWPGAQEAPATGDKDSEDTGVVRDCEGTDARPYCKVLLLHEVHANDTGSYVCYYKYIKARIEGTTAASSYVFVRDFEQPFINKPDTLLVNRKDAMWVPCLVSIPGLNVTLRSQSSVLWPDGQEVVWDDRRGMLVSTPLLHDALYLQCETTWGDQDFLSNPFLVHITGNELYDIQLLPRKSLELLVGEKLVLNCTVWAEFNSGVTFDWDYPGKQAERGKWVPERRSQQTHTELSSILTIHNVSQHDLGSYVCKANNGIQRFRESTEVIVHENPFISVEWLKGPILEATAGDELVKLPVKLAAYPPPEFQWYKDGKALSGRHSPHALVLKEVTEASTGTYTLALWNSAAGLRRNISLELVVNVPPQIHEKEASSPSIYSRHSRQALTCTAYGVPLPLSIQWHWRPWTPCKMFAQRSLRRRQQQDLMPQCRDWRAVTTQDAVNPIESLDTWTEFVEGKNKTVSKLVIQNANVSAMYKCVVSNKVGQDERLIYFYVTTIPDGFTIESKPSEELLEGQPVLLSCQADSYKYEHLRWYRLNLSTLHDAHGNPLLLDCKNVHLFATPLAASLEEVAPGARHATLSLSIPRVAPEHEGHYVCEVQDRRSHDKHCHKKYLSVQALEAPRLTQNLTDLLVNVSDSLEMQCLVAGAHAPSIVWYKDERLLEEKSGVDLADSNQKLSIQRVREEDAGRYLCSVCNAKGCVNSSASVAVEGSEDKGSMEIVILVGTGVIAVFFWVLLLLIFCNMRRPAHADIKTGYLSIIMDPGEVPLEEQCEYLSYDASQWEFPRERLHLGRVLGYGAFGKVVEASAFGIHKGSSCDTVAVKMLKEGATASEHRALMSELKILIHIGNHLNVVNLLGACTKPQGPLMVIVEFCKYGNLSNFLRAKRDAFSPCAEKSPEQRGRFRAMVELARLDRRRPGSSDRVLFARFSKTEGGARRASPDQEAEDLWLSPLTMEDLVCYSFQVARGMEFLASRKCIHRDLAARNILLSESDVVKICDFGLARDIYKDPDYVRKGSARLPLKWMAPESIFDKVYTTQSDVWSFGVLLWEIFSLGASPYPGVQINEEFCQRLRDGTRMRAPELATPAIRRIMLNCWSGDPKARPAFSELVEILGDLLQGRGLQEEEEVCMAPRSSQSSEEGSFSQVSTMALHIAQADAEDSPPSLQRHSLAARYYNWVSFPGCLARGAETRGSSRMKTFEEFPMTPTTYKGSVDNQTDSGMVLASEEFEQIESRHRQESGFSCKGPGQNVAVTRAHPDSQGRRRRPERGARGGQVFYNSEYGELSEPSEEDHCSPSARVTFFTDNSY
Summary of the method: as §1

Jnk1 = molecular target: T5, Jnk1 (Homo sapiens, UniProt P45983); assay: AlphaScreen kinase assay, Jnk1; settings: read-out: IC50, activity toward kinase Jnk1
T5 construct: purchased Upstate Biotechnology
T5 sequence (P45983 whole entry): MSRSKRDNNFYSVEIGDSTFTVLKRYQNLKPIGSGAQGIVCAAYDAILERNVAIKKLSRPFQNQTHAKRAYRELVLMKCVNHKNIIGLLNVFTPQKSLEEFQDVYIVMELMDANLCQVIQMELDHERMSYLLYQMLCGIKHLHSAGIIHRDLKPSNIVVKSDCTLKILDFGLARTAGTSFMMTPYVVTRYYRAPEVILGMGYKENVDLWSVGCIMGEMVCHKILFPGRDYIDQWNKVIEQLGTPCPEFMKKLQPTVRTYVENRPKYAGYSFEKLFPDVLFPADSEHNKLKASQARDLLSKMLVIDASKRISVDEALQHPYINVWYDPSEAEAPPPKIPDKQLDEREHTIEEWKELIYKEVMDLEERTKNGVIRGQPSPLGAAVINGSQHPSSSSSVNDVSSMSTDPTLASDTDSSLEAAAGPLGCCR

Jnk3 = molecular target: T6, Jnk3 (Homo sapiens, UniProt P53779); assay: AlphaScreen kinase assay, Jnk3; settings: read-out: IC50, activity toward kinase Jnk3
T6 construct: purchased Upstate Biotechnology
T6 sequence (P53779 whole entry): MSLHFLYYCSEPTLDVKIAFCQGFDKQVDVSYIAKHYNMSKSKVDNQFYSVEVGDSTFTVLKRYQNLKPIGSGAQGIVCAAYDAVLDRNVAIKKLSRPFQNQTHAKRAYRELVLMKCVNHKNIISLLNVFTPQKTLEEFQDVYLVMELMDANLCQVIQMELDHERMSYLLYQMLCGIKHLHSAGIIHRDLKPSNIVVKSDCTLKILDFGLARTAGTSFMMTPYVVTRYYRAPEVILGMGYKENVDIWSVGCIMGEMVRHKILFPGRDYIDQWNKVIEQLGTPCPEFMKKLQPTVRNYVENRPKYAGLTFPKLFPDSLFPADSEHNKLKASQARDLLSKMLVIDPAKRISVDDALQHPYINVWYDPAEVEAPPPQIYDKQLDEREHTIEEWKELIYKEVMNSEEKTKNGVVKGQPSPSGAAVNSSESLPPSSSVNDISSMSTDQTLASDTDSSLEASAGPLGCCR

PKC theta = molecular target: T7, PKC theta (Homo sapiens, UniProt Q04759); assay: Z'-Lyte FRET kinase assay (Invitrogen), PKC theta; settings: read-out: IC50, activity toward kinase PKC theta
T7 construct: purchased Invitrogen (Carlsbad, Calif.), screening service
T7 sequence (Q04759 whole entry): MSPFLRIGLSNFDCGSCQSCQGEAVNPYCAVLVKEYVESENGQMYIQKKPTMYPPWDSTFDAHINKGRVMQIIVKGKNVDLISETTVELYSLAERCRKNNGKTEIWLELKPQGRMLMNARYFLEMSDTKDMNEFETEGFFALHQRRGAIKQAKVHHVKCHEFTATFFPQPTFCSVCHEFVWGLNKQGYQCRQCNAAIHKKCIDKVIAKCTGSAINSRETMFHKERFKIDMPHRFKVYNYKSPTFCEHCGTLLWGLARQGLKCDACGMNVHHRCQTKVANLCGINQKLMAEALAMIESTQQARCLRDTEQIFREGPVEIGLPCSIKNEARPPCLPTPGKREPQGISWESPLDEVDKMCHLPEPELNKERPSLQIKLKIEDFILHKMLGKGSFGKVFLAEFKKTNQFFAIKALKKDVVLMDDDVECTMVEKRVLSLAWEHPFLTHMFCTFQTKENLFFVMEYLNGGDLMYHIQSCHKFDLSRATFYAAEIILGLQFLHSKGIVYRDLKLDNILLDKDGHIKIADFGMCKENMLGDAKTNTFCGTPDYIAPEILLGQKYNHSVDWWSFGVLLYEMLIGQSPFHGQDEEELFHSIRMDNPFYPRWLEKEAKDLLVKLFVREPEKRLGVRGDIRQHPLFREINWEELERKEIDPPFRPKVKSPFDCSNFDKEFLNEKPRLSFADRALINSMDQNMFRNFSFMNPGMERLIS
Summary of the method: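 Inhibition was inferred from protease cleavage of non-phosphorylated peptide, measured as a coumarin/fluorescein ratio. Kinase reactions used 10 μM ATP for 1 h at room temperature.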

Src = molecular target: T8, Src (Homo sapiens, UniProt P12931); assay: AlphaScreen kinase assay, Src; settings: read-out: IC50, activity toward kinase Src
T8 construct: P1144. pET-N6 BI-PTP SRC V86-L536-X; made in house
T8 sequence (P12931 with tags, fused parts or gaps): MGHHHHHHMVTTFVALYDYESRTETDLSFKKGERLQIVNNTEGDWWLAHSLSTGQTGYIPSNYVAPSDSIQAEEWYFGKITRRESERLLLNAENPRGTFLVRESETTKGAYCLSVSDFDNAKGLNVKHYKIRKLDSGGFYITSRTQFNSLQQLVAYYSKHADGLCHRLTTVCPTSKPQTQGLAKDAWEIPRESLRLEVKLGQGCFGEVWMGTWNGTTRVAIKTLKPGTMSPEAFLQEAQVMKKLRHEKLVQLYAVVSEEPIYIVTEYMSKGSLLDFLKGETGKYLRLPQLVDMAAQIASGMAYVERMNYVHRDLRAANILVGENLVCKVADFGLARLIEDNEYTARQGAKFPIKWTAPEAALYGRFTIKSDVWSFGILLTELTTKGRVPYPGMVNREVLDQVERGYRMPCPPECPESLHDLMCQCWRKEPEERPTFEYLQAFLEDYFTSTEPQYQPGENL

Akt3 = Akt3 (Homo sapiens, UniProt Q9Y243); assay: AlphaScreen kinase assay, Akt3; settings: read-out: IC50, activity toward kinase Akt3
Sequence of Akt3 (Q9Y243 whole entry): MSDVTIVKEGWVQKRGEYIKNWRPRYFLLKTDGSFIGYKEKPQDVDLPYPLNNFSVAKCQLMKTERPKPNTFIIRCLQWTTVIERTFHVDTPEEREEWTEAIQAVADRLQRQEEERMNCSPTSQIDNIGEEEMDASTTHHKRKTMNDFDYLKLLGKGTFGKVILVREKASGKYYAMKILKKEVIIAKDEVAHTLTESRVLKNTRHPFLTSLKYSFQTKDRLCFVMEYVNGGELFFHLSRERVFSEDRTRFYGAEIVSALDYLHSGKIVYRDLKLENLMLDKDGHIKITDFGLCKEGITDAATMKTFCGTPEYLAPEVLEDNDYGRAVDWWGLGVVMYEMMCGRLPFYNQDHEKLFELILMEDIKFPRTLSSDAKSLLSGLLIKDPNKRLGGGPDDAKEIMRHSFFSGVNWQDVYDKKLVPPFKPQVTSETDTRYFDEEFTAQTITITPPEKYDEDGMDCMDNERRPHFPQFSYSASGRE
Summary of the method: as §1

Structure (SMILES) | IC50 (Abl) | IC50 (c-Raf-1) | IC50 (Flt1) | IC50 (Flt4) | IC50 (Jnk1) | IC50 (Jnk3) | IC50 (PKC theta) | IC50 (Src) | IC50 (Akt3)
CC(=O)Nc1cccc(-c2cnc3[nH]cc(C(=O)c4cc(O)ccc4F)c3c2)c1 [Compound P-0001] | ≤ 10 µM | ≤ 10 µM | ≤ 10 µM | ≤ 10 µM | ≤ 10 µM | ≤ 10 µM | ≤ 10 µM | ≤ 10 µM | ≤ 10 µM
Nc1cccc(-c2cnc3[nH]cc(C(=O)c4cc(O)ccc4F)c3c2)c1 [Compound P-0002] | ≤ 10 µM | ≤ 10 µM | ≤ 10 µM | – | ≤ 10 µM | ≤ 10 µM | ≤ 10 µM | ≤ 10 µM | ≤ 10 µM
Nc1cccc(-c2cnc3[nH]cc(C(=O)c4cccc(O)c4F)c3c2)c1 [Compound P-0004, [5-(3-amino-phenyl)-1H-pyrrolo[2,3-b]pyridin-3-yl]-(2-fluoro-3-hydroxy-phenyl)methanone] | – | ≤ 10 µM | ≤ 10 µM | – | ≤ 10 µM | ≤ 10 µM | ≤ 10 µM | ≤ 10 µM | ≤ 10 µM
CS(=O)(=O)c1cccc(-c2cnc3[nH]cc(C(=O)c4cc(O)ccc4F)c3c2)c1 [Compound P-0008, (2-Fluoro-5-hydroxy-phenyl)-[5-(3-methanesulfonyl-phenyl)-1H-pyrrolo[2,3-b]pyridin-3-yl]-methanone] | – | ≤ 10 µM | ≤ 10 µM | – | ≤ 10 µM | ≤ 10 µM | ≤ 10 µM | ≤ 10 µM | ≤ 10 µM
O=C(c1ccc(O)cc1)c1c[nH]c2ncc(-c3cccs3)cc12 [Compound P-0024, (4-Hydroxy-phenyl)-(5-thiophen-2-yl-1H-pyrrolo[2,3-b]pyridin-3-yl)-methanone] | – | ≤ 10 µM | ≤ 10 µM | ≤ 10 µM | – | ≤ 10 µM | ≤ 10 µM | – | ≤ 10 µM
CS(=O)(=O)c1cccc(-c2cnc3[nH]cc(C(=O)c4cccc(O)c4F)c3c2)c1 [Compound P-0026, (2-Fluoro-3-hydroxy-phenyl)-[5-(3-methanesulfonylphenyl)1H-pyrrolo[2,3-b]pyridin-3-yl]-methanone] | – | ≤ 10 µM | ≤ 10 µM | – | ≤ 10 µM | ≤ 10 µM | ≤ 10 µM | ≤ 10 µM | ≤ 10 µM

Further lines, results first:

IC50 (Abl) | IC50 (c-Raf-1) | IC50 (Flt1) | IC50 (Flt4) | IC50 (Jnk1) | IC50 (Jnk3) | IC50 (PKC theta) | IC50 (Src) | IC50 (Akt3) | Structure (SMILES)
≤ 10 µM | – | ≤ 10 µM | ≤ 10 µM | ≤ 10 µM | ≤ 10 µM | ≤ 10 µM | ≤ 10 µM | ≤ 10 µM | Nc1cccc(-c2cnc3[nH]cc(C(=O)c4cccc(O)c4)c3c2)c1 [Compound P-0003]
≤ 10 µM | – | ≤ 10 µM | ≤ 10 µM | – | – | ≤ 10 µM | – | – | O=C(c1cccc(O)c1)c1c[nH]c2ncccc12 [Compound P-0011]
≤ 10 µM | – | ≤ 10 µM | ≤ 10 µM | – | – | ≤ 10 µM | – | – | O=C(c1cccc(O)c1)c1c[nH]c2nccc(Cl)c12 [Compound P-0012]
≤ 10 µM | – | ≤ 10 µM | ≤ 10 µM | – | – | ≤ 10 µM | – | ≤ 10 µM | O=C(c1cccc(O)c1)c1c[nH]c2ncc(Br)cc12 [Compound P-0019]
≤ 10 µM | ≤ 10 µM | – | – | ≤ 10 µM | ≤ 10 µM | ≤ 10 µM | ≤ 10 µM | ≤ 10 µM | O=C(c1cccc(O)c1)c1c[nH]c2ncc(Nc3ccccc3)cc12 [Compound P-0025]
– | – | ≤ 10 µM | ≤ 10 µM | – | – | ≤ 10 µM | – | – | O=C(c1cccc(O)c1)c1c[nH]c2nccc(-c3cc(F)cc(F)c3)c12 [Compound P-0039]
